Assay results reported in US20220403001A1, “PDE5 DERIVED REGULATORY CONSTRUCTS AND METHODS OF USE IN IMMUNOTHERAPY” (Obsidian Therapeutics, Inc., priority 2018, published 2022).

How the values were obtained:
[1] = target: hPDE5 mutants (Homo sapiens, UniProt O76074); assay: GFP FACS analysis of hPDE5 mutant library clones in NIH3T3 cell pools; details: for MFI 10 μM VDF / MFI DMSO: GFP, NIH3T3 cell pools; for MFI 10 μM VDF: 10 μM vardenafil 24 hr; for MFI 10 μM VDF / MFI DMSO / GFP FACS analysis (MFI): experiment 1; for MFI DMSO: no ligand (DMSO)
Method: (§1) These constructs were packaged into lentivirus, transduced into NIH3T3 cells and select stable cell pools were derived as described below. […] Lentiviral stocks were used for transduction of NIH3T3 cells and subsequent cell pool selection. The day before transduction, NIH3T3 cells (1.8×10^6) were seeded in a T-25 flask and allowed to reach 60-70% confluency (˜1 day). The growth medium in the T-25 flask was then replaced with 1 mL virus (quickly thawed in a 37° C. water bath) and 5 μg/mL polybrene. […] Transduction medium was removed the following day and replaced with 5 mL fresh medium. At 48 hr after transduction, the medium was replaced with media containing 1 μg/mL puromycin. This puromycin medium was replaced every 3-4 days until cell pools were established (˜2 weeks).
(§2) The mean fluorescence intensity (MFI) of GFP at 100 μM concentration treatment was set as 100% hPDE5 stabilization effect (HPE), while DMSO treatment was set as 0% effect (ZPE) of hPDE5 stabilization. The effect of the compound on hPDE5 stabilization was calculated based on the following formula: % PDE5 stabilization effect=(MFI-ZPE)/(HPE-ZPE)×100.
(§3) Plots of the % effect versus concentration were generated with Graphpad Prism 5 and EC50 values were calculated using a four-parameter nonlinear regression model.
(§4) Select PDE5 clones from both experiment 1 and experiment 2 were directly compared. […] The stabilization ratio was calculated as the fold change in GFP intensity in ligand treated samples compared to treatment with DMSO (i.e. in the absence of ligand) with the same construct.

[2] = system: hPDE5 mutants; assay: as above; details: experiment 1
Method: as §1, §2, §3, §4

| Substance | MFI 10 μM VDF [1] | MFI DMSO [1] | GFP FACS analysis (MFI) ([1]; SDF 3.704 μM) | GFP FACS analysis (MFI) ([1]; SDF 11.111 μM) | GFP FACS analysis (MFI) ([1]; SDF 33.333 μM) | GFP FACS analysis (MFI) ([1]; SDF 100 μM) | GFP FACS analysis (MFI) ([1]; TDF 3.704 μM) | GFP FACS analysis (MFI) ([1]; TDF 11.111 μM) | GFP FACS analysis (MFI) ([1]; TDF 33.333 μM) | GFP FACS analysis (MFI) ([1]; TDF 100 μM) | GFP FACS analysis (MFI) ([1]; VDF 1.235 μM) | GFP FACS analysis (MFI) ([1]; VDF 3.704 μM) | GFP FACS analysis (MFI) ([1]; VDF 11.111 μM) | GFP FACS analysis (MFI) ([1]; VDF 33.333 μM) | GFP FACS analysis (MFI) ([1]; VDF 100 μM) | GFP FACS analysis (MFI) ([2]; DMSO (no ligand), SDF series) | GFP FACS analysis (MFI) ([2]; DMSO (no ligand), TDF series) | GFP FACS analysis (MFI) ([2]; DMSO (no ligand), VDF series) | GFP FACS analysis (MFI) ([2]; SDF 1.235 μM) | Percent stabilization effect ([2]; SDF 1.235 μM) | further results |
| --- | --- | --- | --- | --- | --- | --- | --- | --- | --- | --- | --- | --- | --- | --- | --- | --- | --- | --- | --- | --- | --- |
| LibC000015: hPDE5 (Amino acid 535-860 of WT, T571S, V585M, T723S), DD generated by random mutagenesis | 1951 | 174 | 331 | 357 | 432 | 630 | 326 | 374 | 463 | 518 | 756 | 1383 | 2315 | 3166 | 3069 | 301 | 306 | 373 | 320 | 5.8% | Percent stabilization effect ([2]; SDF 3.704 μM): 9.1%; Percent stabilization effect ([2]; SDF 11.111 μM): 17.0%; Percent stabilization effect ([2]; SDF 33.333 μM): 39.8%; Percent stabilization effect ([2]; SDF 100 μM (set as 100%)): 100.0%; GFP FACS analysis (MFI) ([2]; TDF 1.235 μM): 311; Percent stabilization effect ([2]; TDF 1.235 μM): 2.4%; Percent stabilization effect ([2]; TDF 3.704 μM): 9.4%; Percent stabilization effect ([2]; TDF 11.111 μM): 32.1%; Percent stabilization effect ([2]; TDF 33.333 μM): 74.1%; Percent stabilization effect ([2]; TDF 100 μM (set as 100%)): 100.0%; Percent stabilization effect ([2]; VDF 1.235 μM): 14.2%; Percent stabilization effect ([2]; VDF 3.704 μM): 37.5%; Percent stabilization effect ([2]; VDF 11.111 μM): 72.0%; Percent stabilization effect ([2]; VDF 33.333 μM): 103.6%; Percent stabilization effect ([2]; VDF 100 μM (set as 100%)): 100.0% |
| LibC000020: hPDE5 (Amino acid 535-860 of WT, A722V, F755L, M760I), DD generated by random mutagenesis | 1459 | 332 | 376 | 373 | 407 | 513 | 342 | 371 | 440 | 509 | 399 | 733 | 1395 | 2144 | 2499 | 338 | 243 | 238 | 371 | 18.9% | Fluorescence intensity Sildenafil ([1]; median GFP fluorescence by FACS, 10 μM Sildenafil, direct comparison of clones): 513; Fluorescence intensity Tadalafil ([1]; median GFP fluorescence by FACS, 10 μM Tadalafil, direct comparison of clones): 509; Fluorescence intensity Vardenafil ([1]; median GFP fluorescence by FACS, 10 μM Vardenafil, direct comparison of clones): 2499; Fluorescence intensity DMSO ([1]; median GFP fluorescence by FACS, vehicle DMSO (no ligand), direct comparison of clones): 273; Percent stabilization effect ([2]; SDF 3.704 μM): 21.7%; Percent stabilization effect ([2]; SDF 11.111 μM): 20.0%; Percent stabilization effect ([2]; SDF 33.333 μM): 39.4%; Percent stabilization effect ([2]; SDF 100 μM (set as 100%)): 100.0%; GFP FACS analysis (MFI) ([2]; TDF 1.235 μM): 337; Percent stabilization effect ([2]; TDF 1.235 μM): 35.3%; Percent stabilization effect ([2]; TDF 3.704 μM): 37.2%; Percent stabilization effect ([2]; TDF 11.111 μM): 48.1%; Percent stabilization effect ([2]; TDF 33.333 μM): 74.1%; Percent stabilization effect ([2]; TDF 100 μM (set as 100%)): 100.0%; Percent stabilization effect ([2]; VDF 1.235 μM): 7.1%; Percent stabilization effect ([2]; VDF 3.704 μM): 21.9%; Percent stabilization effect ([2]; VDF 11.111 μM): 51.2%; Percent stabilization effect ([2]; VDF 33.333 μM): 84.3%; Percent stabilization effect ([2]; VDF 100 μM (set as 100%)): 100.0% |
